Columns and labels:
[1] = test system: human adipocytes; experiment: Human adipocyte-populated collagen I hydrogels with or without mechanical stretch
[2] = test system: wounds; experiment: Visium spatial transcriptomic analysis of wounds; type: in vivo, mouse
Method: Wound specimens were rapidly harvested and flash frozen in OCT. Using the Visium Tissue Optimization Slide and Reagent Kit, permeabilization time was optimized at a thickness at 10 μm per section and 37 minutes for mouse tissue. Following cryo-sectioning at −20 degrees onto gene expression slides the expression slide and reagent kit was used to produce sequencing libraries. The libraries were then sequences using NextSeq (Illumina). Following demultiplication the raw FASTQ files and histology images were processed by sample with the Space Ranger software for genome alignment. The raw spaceranger output files for each sample was then read into a Seurat class object in R using Seurat's Load10× function. Data was normalized using the SCT transform with default parameters. To ascertain the integration of our scRNAseq and Visium spatial analysis we employed the FindTransferAnchors( ) function from Seurat, which allowed the alignment of data using the two datasets. This cross-platform linkage is performed serially in an unconstrained and constrained fashion.

[3] = test system: dorsal excisional wounds; experiment: Splinted dorsal excisional wounding with inhibitor injected at POD 0; type: in vivo, mouse
[4] = test system: human adipocytes; experiment: Calcium imaging of hydrogel-bound adipocytes (Fluo-4 AM); type: cell-based; conditions: stretched human adipocytes
From the text: Calcium imaging was used to determine in vitro Ca^2+ flow in hydrogel-bound adipocytes with or without mechanical strain and with or without Piezo1 inhibitor treatment. A Fluo-4, AM cell permeant kit (ThermoFisher, Cat: F-14201) was used per the manufacturer's instructions. […] Imagej was used for image quantification.

[5] = test system: wounds; experiment: CODEX spatial protein analysis of POD 14 wounds; type: in vivo, mouse; conditions: POD 14, vs PBS
From the text: To spatially phenotype the pig specimens, we used Co-Detection by Indexing (CODEX), a novel assay in which markers are labeled with oligonucleotide-conjugated antibodies and iteratively imaged between cyclic additions and washouts of dye-labeled oligonucleotides. A custom CODEX panel was designed to assess wound cells within the tissue see Table 1). In brief, primary antibodies were individually barcoded and validated using the commercial supplier's protocols. OCT for mouse or paraffin blocks for human xenograft (n=3 per group) were sectioned at 8 μm thickness onto coverslips for CODEX antibody staining. Antigens were retrieved by standard citrate-EDTA processing prior to addition of CODEX antibodies. Using a CODEX-integrated Keyence BZ-X instrument (Akoya Biosciences) image acquisition was then performed. Using software from Akoya Biosciences the raw images were process, with cell segmentation, and rendering.
The CODEX was visualized using Akoya Biosciences Multiplex Analysis Viewer (MAV) in ImageJ. The resulting .fcs files were then concatenated in FlowJo and imported into the Monocle3 and STvEA R packages for further analysis. After debris removal, the processed UMAP manifold was analyzed through Monocle3 with a post-manifold threshold of >10,000 cells per cluster. Analysis of the protein staining patterns was then used to assign cell types. The cell interactions were then inferred using STvEA for cell types at >2.5% of total abundance at k=20 nearest neighbors to quantify cell spatial interactions, and differential interaction maps were generated using graph scores.

[6] = test system: mouse adipocytes; experiment: Mouse adipocyte-populated collagen I hydrogels with or without mechanical stretch; conditions: 10% equibiaxial strain, 7 days; GsMTx4 500 nM, D-GsMTx4 500 nM, PF573228 10 uM, Verteporfin 300 nM
[7] = test system: dorsal excisional wounds; conditions: POD 30; cited from earlier work
[8] = test system: existing scars; experiment: Treatment of existing scars during remodeling (scar rescue); type: in vivo, mouse; conditions: treated at POD 30, 75 or 120, harvested one month later
From the text: While wound re-epithelialization is complete relatively quickly (around 2 weeks), wounds continue to heal beneath the surface for months to years in a process known as scar remodeling. (Foster et al., 2021; Gurtner et al., 2008) Remodeling is the longest and least well understood phase of wound repair but is likely critical to ultimate outcomes. We postulated that ADFs could continue to play a role in scarring during the remodeling process; if this were the case, we wondered whether ADF activity could be targeted during wound remodeling, via P1i in existing, actively remodeling scars, to ultimately reduce scarring and drive regeneration (FIG. 6A,C). Thus, we administered P1i to existing scars at POD 30 (early remodeling period), POD 75 (mid-remodeling), and POD 120 (late remodeling), then harvested tissue one month later at POD 60, POD 105, and […] respectively (FIG. 6A, C).

[9] = test system: adipocytes; experiment: Adipocyte ablation with diphtheria toxin in wounded Adipoq Cre-ERT iDTR mice; type: in vivo, mouse
[10] = test system: human fibroblasts; experiment: Human fibroblasts in 3D collagen gels with stretching; type: cell-based
From the text: To further confirm that human cluster 3 represented a pro-regenerative ADF population we utilized our in vitro collagen gel system. We first, FACS sorted human fibroblasts based on expression of cluster 3 markers including ROBO2, CD29, and SFRP2 and seeded them into 3D collagen gels (FIG. 42B). […] In contrast, stretching with P1 inhibition kept the fibroblasts in a more adipocyte-like phenotype, with high expression of PPARg and low expression of Collagen Type I, similar to fibroblasts in an unstretched state (FIG. 42B).
To determine if P1i may activate […] Wnt pathways to maintain cluster 3 in an adipocyte-like phenotype, we applied Wnt5a recombinant protein to the in vitro collagen gel system (FIG. 42C). […] In summary, P1i treatment may revert fibroblasts towards the mechanically naïve fibroblast pro-regenerative fibroblast population through the activation of canonical Wnt pathways and thereby preventing the transition to pro-scarring phenotypes defined by CJUN and VCAM1 expression.

Molecule: Clc1cccc(Cl)c1CSc1nnc(-c2cnccn2)s1 [Yoda1]
- adipocyte hypertrophy and conversion to fibroblasts ([1]; absence of applied stretch): sufficient to drive adipocyte hypertrophy and conversion to fibroblasts

Molecule: D-GsMTx4 [P2i]
- differential interaction maps (Visium) ([2]; POD 14): strong interactions between adipocytes and fibroblasts
- fibroblast scRNA-seq cluster 0 (mechanically sensitive) spatial enrichment ([2]; POD 14): highly enriched in PBS-treated POD 14 wounds compared to P1i or P2i treated wounds
- fibroblast scRNA-seq cluster 5 (mechanically naive) spatial presence ([2]; POD 14): observed
- spatially variable features (gene expression) ([2]; POD 14): high expression of markers associated with the epidermis including Krt1 and Krt14
- adipocyte and epithelial cells in the spatial environment ([2]; POD 14, vs PBS): enriched
- time to complete wound re-epithelialization ([3]; 30 uL of 0.2 mg/ml intradermal at wound edge, POD 0): did not significantly affect
- Oil Red O staining and IF for cytokeratins 14/19 (regenerating appendages) ([3]; POD 14): presence of putative regenerating sebaceous glands/HF
- adipocyte-derived fibroblasts (ADFs) in wounds ([3]; POD 14, FACS and histology): significantly reduced
- Col1 and α-SMA ([3]; POD 14 and POD 30): reduced
- ECM density ([3]; POD 14 and POD 30): less dense
- hair follicle formation ([3]; POD 30): allowed for hair follicle formation
- calcium staining with stretching [4]: decreased
- individual adipocyte-fibroblast subpopulation interactions (CODEX) [5]: enhanced interactions between mechanically naïve subpopulations including adipocyte cluster 1 and fibroblast clusters 2 and 4
- stretch-induced phenotypic switch (losing adiponectin, expressing Col1) [6]: abrogated
- stretch-induced hypertrophy of human adipocytes ([1]; 10% equibiaxial strain, 7 days): reversed

Molecule: Verteporfin [YAPi]
- hair regrowth (previous study, Mascharak et al., 2021a) [7]: allow for hair regrowth
- stretch-induced phenotypic switch (losing adiponectin, expressing Col1) [6]: abrogated
- wound regeneration in existing scars [8]: did not induce regeneration

Molecule: CS(=O)(=O)c1cccc(CNc2nc(Nc3ccc4c(c3)CCC(=O)N4)ncc2C(F)(F)F)c1 [FAKi, PF573228]
- stretch-induced phenotypic switch (losing adiponectin, expressing Col1) [6]: abrogated

Molecule: diphtheria toxin [DT]
- subdermal fat and GFP+ cells (efficacy of ablation) ([9]; 200 ng intradermal daily over 3 days, unwounded skin and POD 14 wounds): minimal to no subdermal fat and no GFP^+ cells in wounds
- ECM ultrastructure ([9]; POD 14): less scar-like and more closely resembled unwounded skin
- Col1 and α-SMA content ([9]; POD 14, vs PBS control scars): decreased
- ECM density ([9]; POD 14, vs PBS control scars): less dense
- dermal thickness ([9]; POD 14, vs PBS control scars): significantly reduced

B1: Wnt5a recombinant protein: Wnt5a recombinant protein applied to the in vitro collagen gel system (protein, UniProt P41221 62-380, looked up)
Protein Wnt-5a: IIGAQPLCSQLAGLSQGQKKLCHLYQDHMQYIGEGAKTGIKECQYQFRHRRWNCSTVDNTSVFGRVMQIGSRETAFTYAVSAAGVVNAMSRACREGELSTCGCSRAARPKDLPRDWLWGGCGDNIDYGYRFAKEFVDARERERIHAKGSYESARILMNLHNNEAGRRTVYNLADVACKCHGVSGSCSLKTCWLQLADFRKVGDALKEKYDSAAAMRLNSRGKLVQVNSRFNSPTTQDLVYIDPSPDYCVRNESTGSLGTQGRLCNKTSEGMDGCELMCCGRGYDQFKTVQTERCHCKFHWCCYVKCKKCTEIVDQFVCK
- phenotype of human fibroblasts (PPARg, Collagen Type 1) [10]: a more adipocyte like phenotype with high expression of PPARg and low expression of Collagen Type 1

— patent US20250195474A1, “Piezo Inhibition for Wound Healing” (priority 2022, published 2025)
